Results published in patent US20170216360A1, “METHODS AND COMPOSITIONS FOR IMPROVING HOMING OF CELLS INCLUDING MESENCHYMAL STEM CELLS” (SANOFI, priority 2014, published 2017).
Where a name gives a salt, the structure may show the parent alone.

Experiments:
[1] = test system: MSC firm adhesion to ICAM-1-coated surface; test: ICAM-1 firm adhesion assay under shear flow, with antibody blocking; format: cell-based, human
Protocol: Cell adhesion experiments were performed using Bioflux1000 (FluxionBio), allowing accurate control over shear flow. A special 48-well plate was used, in which a microfluidic channel (350 μm×70 μm) connects each pair of adjacent wells (termed inlet and outlet wells). The plate was placed under vacuum and the channels were coated from the inlet with recombinant human E-selectin (5 μg/mL) or ICAM-1 (5 μg/mL) and incubated at 37° C. for 1 h. Prior to introducing the cells into the channel, a wash with PBS−/− from the outlet well was performed for 5 min. Compound-pretreated MSCs were introduced into the channel, followed by attachment period of 2 minutes (no flow applied during the attachment period). Attached cells were then subjected to increasing shear flow, ranging from 0.25 dynes/cm^2 for up to 10 dynes/cm^2. Images were acquired using the Montage software and cell adhesion to the coated channels following subjection to shear flow was examined. See also disclosure elsewhere herein.
Pre-confluent MSCs were incubated for 24 hours with the indicated small molecules (3 μM). MSCs were than detached, washed and incubated for 30 minutes with an antibody reagent. The following antibodies are used: anti-human CD11a (clone: HI111), anti-human CD90 (clone: MAB2067), mouse anti-human CD11a (clone: TS1/22), and mouse IgG1 isotype control. Cells were then introduced into the channel and given 2 minutes to adhere before being subjected to increasing shear flow for a firm adhesion assay on a microfluidic channel coated with E-selectin or ICAM-1.

[2] = test system: CD11a surface expression on MSCs; test: CyTOF analysis of CD11a expression levels on MSCs; format: cell-based, human
Protocol: To further confirm the screening results, the surface expression of CD11a was also examined by Time of Flight Mass Cytometry (CyTOF2, DVS Sciences) (Newell et al., 2013, Nat Biotechnol. 31(7):623-9). MSCs were treated with Ro-31-8425 as indicated and sample preparation was performed per manufacturer's instructions with slight modifications. Briefly, the harvested MSC pellet was first resuspended with Intercalator-103Rh solution (1 μM) in PBS to identify viable cells, then washed twice with MaxPar cell staining buffer and stained with 100 μL antibody cocktail (human Nd142-CD11a and Tb159-CD90, 1:200 dilution in staining buffer) for 30 min at room temperature. After two washes, the cells were further stained with 125 nM MaxPar Intercalator-Ir in MaxPar Fix and Perm buffer for 1-2 h with gentle shaking. Finally the fixed cells were thoroughly washed with ultrapure H2O 2O for three times (1000 g, 5 min each), resuspended in 300 μL H2O and filtered through a 40 μm Falcon cell strainer (Corning) prior to CyTOF data acquisition. The CyTOF data was analyzed with Cytobank on-line data analysis platform (website www cytobank.org).

[3] = test system: LPS-induced inflamed mouse ear; test: Ear thickness in LPS-induced ear inflammation after infusion of pretreated MSCs; format: in vivo
Protocol: (§1) To determine the impact of small molecule pretreatment on MSC therapeutic potential, ear swelling was measured. As a baseline, we measured ear thickness of all mice to be used using a caliper (Mitutoyo Inc.) and found no difference. Each measurement was taken 3 times with the average value recorded, and care taken to ensure minimal compression. Inflammation was then induced by injection of 30 μg LPS in 30 μL 0.9% saline solution into the pinna of the left ear. 24 hours later, n=3 mice of each condition were infused with no MSCs, 10e6/20 g body weight MSCs pretreated for 24 hours with 0.1% DMSO, or 10e6/20 g body weight MSCs pretreated for 24 hours with 3.0 μM small molecule compound 1929. Upon 24 hours after cell infusion, ear thickness was measured using a caliper as before. To evaluate TNF-α secretion, inflammation and MSC treatment was performed as above with n=4-6 mice for each condition. Mice were sacrificed 24 hours after cell administration and both ears were harvested. Ears were then ground in ice-cold extraction buffer (RIPA with 0.5% Tween-20) using a homogenizer. Homogenates were transferred to 1.5 mL tubes, centrifuged at 13,000×g for 10 minutes at 4° C., and the supernatant was stored at −80° C. until analysis. The level of mouse TNF-α level in the samples was quantified using an anti-mouse TNF-α ELISA kit (Biolegend, San Diego, Calif.).

TNF-α = TNF-α ELISA of ear homogenates after infusion of pretreated MSCs; format: in vivo, mouse
Protocol: as §1

Compound: Cn1cc(C2=C(c3c4n(c5ccccc35)CCC(CN)C4)C(=O)NC2=O)c2ccccc21 (stereo not shown) [Compound 1929, 3-(8-aminomethyl-6,7,8,9-tetrahydro-pyrido[1,2-a]indol-10-yl)-4-(1-methyl-1H-indol-3-yl)-pyrrole-2,5-dione hydrochloride]
- CD11a+ part of the induced ICAM-1 adhering population ([1]; 3 μM for 24 h): approximately 7%
- Increase in MSC firm adhesion to ICAM-1-coated substrate compared to vehicle-treated MSCs ([1]; 3 μM for 24 h): > 3 fold
- New MSC sub-population with induced ICAM-1 firm adhesion, share of entire population ([1]; 3 μM for 24 h): 68%
- Part expressing other ICAM-1-binding domains ([1]; 3 μM for 24 h): 61%
- Adhered cells on ICAM-1-coated surface before CD11a blocking ([1]; pretreated MSC): 90%
- Adhered cells on ICAM-1-coated surface following CD11a blocking ([1]; pretreated MSC, CD11a blocking Ab): 50%
- Time over which the percentage of CD11a-positive MSCs was stable ([2]; 3 μM for 24 h): at least 4 days
- Percentage of CD11a-positive MSCs ([2]; 0.1, 1, 3 and 10 μM for 24 hours): dose-dependent increase
- Effect on ear swelling relative to control MSCs ([3]; 24 hours post administration): over 3 ×
- Reduction in ear thickness ([3]; 24 hours post administration of pretreated MSCs, vs no MSC): 20.0±5.3 μm
- Effect in reducing ear swelling relative to vehicle control MSCs ([3]; 24 h post-administration): greater than 3 fold
- Reduction of increased TNF-α levels in the inflamed ear (TNF-α; 24 h after pretreated MSCs): ~50%
- TNF-alpha levels in the inflamed ear, fold reduction (TNF-α; 24 hours after pretreated MSCs): 2.6±0.5 fold
